Source: paper PMC2556223 (Journal of biomolecular screening, 2008)

How the values were obtained:
CDV-752 = assay: Dose-response CPE assay, Vero-dogSLAM cells; format: cell-based, canine distemper virus; conditions: Vero-dogSLAM cells, highest concentration assessed 37.5 μM; for EC50: read-out: EC50 (CDV-752)
cells = assay: Quantitative cytotoxicity assay; format: cell-based; conditions: for CC50: 24 h, absence of virus, highest concentration assessed 150 μM, averages of two experiments; for SI (CC50/EC50): specificity index, CC50 / EC50 against MV-Alaska
MV-AII-5 = assay: Dose-response CPE assay against AS-136A-adapted MV variant; conditions: read-out: EC50 (MV-AII-5); MV-Alaska variant adapted to grow in presence of RdRp inhibitor AS-136A; highest concentration assessed 37.5 μM
HPIV3 = assay: Dose-response CPE assay, Vero cells; format: cell-based, human parainfluenzavirus type 3; conditions: Vero cells, highest concentration assessed 37.5 μM; for EC50: read-out: EC50 (HPIV3)
MV-Ibd = assay: Dose-response CPE assay against AS-48-resistant MV strain; conditions: strain naturally resistant to MV fusion inhibitor AS-48; highest concentration assessed 37.5 μM
MV-Alaska = assay: Dose-response curves based on suppression of viral CPE; format: cell-based, measles virus; conditions: biotesting of chemically re-synthesized compound; data not shown

Row | SMILES | EC50 (CDV-752) (CDV-752) | CC50 (cells) [µM] | SI (CC50/EC50) (cells) | EC50 (MV-AII-5) [µM] | EC50 (HPIV3) (HPIV3) | EC50 (MV-Ibd) (MV-Ibd) | EC50 (CDV-752) [µM] | EC50 (HPIV3) [µM] | Activity of re-synthesized compound versus original library substance (MV-Alaska)
1 | CS(=O)(=O)N1CCc2cc(-c3csc(NC(=O)Cc4cccs4)n3)ccc21 [compound 846635] | no activity detected | ~150 | 56 | 3.7 ± 0.1 | no activity detected | no activity detected | – | – | –
2 | CC1Cc2cc(-c3csc(NC(=O)Cc4cccs4)n3)ccc2N1S(C)(=O)=O (stereo not shown) [compound 852230] | no activity detected | ~150 | 46 | 4.5 ± 0.2 | no activity detected | no activity detected | – | – | –
3 | COc1cccc(CNC(=O)c2cc3oc4ccccc4c3n2C)c1OC [compound 4242806] | – | 147 | 105 | 2.1 ± 0.1 | – | – | 2.1 ± 0.1 | 2 ± 0.1 | –
4 | CSc1cccc(NC(=O)Cn2cccc2)c1 [compound 4245209] | – | – | – | 14.3 ± 0.8 | no activity detected | no activity detected | 31.1 | – | –
5 | Cc1ccc2[nH]c(=O)c(N3CCOCC3)c(-c3ccccc3)c2c1 [compound 4259333] | no activity detected | 118 | 36 | 4.3 ± 0.3 | no activity detected | – | – | – | –
6 | CSc1ccccc1NC(=O)Cn1c(-c2cscn2)nc2ccccc21 [compound 4261934] | no activity detected | > 150 | >63 | 3.9 ± 0.1 | no activity detected | – | – | – | –
7 | CNC(=O)c1ccc(OCc2ccccc2)c(OC)c1 [compound 4265637] | – | > 150 | >50 | 4.7 ± 0.3 | no activity detected | no activity detected | 6.7 ± 0.1 | – | –
8 | CCOC(=O)Cn1c(-c2nonc2NC(=O)c2ccccc2F)nc2ccccc21 [compound 7973070] | – | ~150 | 375 | 2 ± 0.2 | – | – | 1 ± 0.1 | 1.9 ± 0.1 | –
9 | CSc1nnc2c3ccccc3n(CCc3ccccc3)c2n1 [compound 7976354] | – | > 150 | >33 | 1 ± 0.1 | – | – | 0.9 ± 0.1 | 3.5 ± 0.1 | –
10 | CS(=O)(=O)N1CCc2cc(-c3csc(NC(=O)Cc4ccccc4)n3)ccc21 [compound 14723513] | – | > 150 | >41 | 3.6 ± 0.2 | no activity detected | no activity detected | 26.8 ± 8.7 | – | –
11 | Cn1c(C(=O)NCc2ccccc2)cc2oc3ccccc3c21 [compound 14735307] | no activity detected | > 150 | – | 5.4 ± 1.6 | no activity detected | – | – | – | –
12 | CCN(CC)C(=O)N1c2ccccc2C=Cc2ccccc21 [compound 14740150] | – | > 150 | >34 | – | – | – | 1.9 ± 0.1 | 3 ± 0.1 | –
13 | CC(=O)/C(C#N)=C1\NC(=O)C(Cc2ccc(C)c(C)c2)S1 (stereo not shown) [compound 14741996] | – | > 150 | >47 | 7.7 ± 0.1 | – | – | 4.2 ± 0.1 | 3.9 ± 0.1 | –
14 | C=CCn1c(SCC(=O)N2CC(=O)Nc3ccccc32)nc2scc(-c3ccccc3)c2c1=O [compound 14743644] | no activity detected | ~150 | 56 | 4.6 ± 0.1 | no activity detected | – | – | – | –
15 | C#CCn1c(S(=O)(=O)Cc2ccc(F)cc2)nc(-c2ccccc2)c1-c1ccccc1 [compound 17409378] | – | 26 | 37 | 1.4 ± 0.3 | – | – | – | 1.7 ± 0.2 | –
16 | COc1ccc([N+](=O)[O-])cc1NC(=O)CCc1ccccc1 [compound 17416393] | – | > 150 | >100 | 2.9 ± 0.5 | no activity detected | no activity detected | 12.9 ± 0.7 | – | –
17 | O=C(/C=C/c1cccs1)Nc1cccc(NC(=O)/C=C/c2cccs2)n1 [compound 17433375] | no activity detected | 70 | 19 | 3.2 ± 0.1 | no activity detected | – | – | – | –
18 | CC(=O)Nc1ccc(Nc2cc(C)nc3c(-c4ccccc4)cnn23)cc1 [compound 17505573] | no activity detected | 54 | 14 | 1.6 ± 0.1 | no activity detected | no activity detected | – | – | –
19 | O=C(Cc1cccs1)Nc1cc(SCCO)cc([N+](=O)[O-])c1 [compound 22402685] | – | > 150 | >79 | 1.6 ± 0.2 | no activity detected | no activity detected | 2.1 ± 0.3 | – | –
20 | Cc1cccc(-n2c(SCC(=O)Nc3ncc(Cl)cc3Cl)nc3ccccc32)c1 [compound 22404943] | – | > 150 | >214 | 0.5 ± 0.1 | – | – | 0.4 ± 0.1 | 0.6 ± 0.1 | –
21 | C=CCN=c1scc(-c2ccccc2)n1/N=C/c1ccccn1 [compound 22406106] | – | 139 | 116 | – | – | – | – | – | –
22 | CCN=c1scc(-c2ccccc2)n1/N=C/c1ccccn1 [compound 22406746] | – | ~150 | 37 | – | – | – | 2.3 ± 0.2 | 2 ± 0.1 | –
23 | COc1ccc(-n2c(SC(C)C(=O)Nc3ncc(Cl)cc3Cl)nc3ccccc32)cc1 (stereo not shown) [compound 22407448] | – | > 150 | – | 0.1 | – | – | – | 0.2 ± 0.1 | essentially identical to the original substances stored in the library
24 | O=C(CSc1nc2ccccc2n1-c1ccccc1)Nc1ncc(Cl)cc1Cl [compound 22407466] | – | > 150 | >71 | – | – | – | 0.9 ± 0.1 | 1 ± 0.1 | –
25 | CC(=O)Nc1ccc(-c2csc(NC(=O)CCCc3cccs3)n2)cc1 [compound 22408576] | no activity detected | > 150 | >65 | 2 ± 0.1 | no activity detected | – | – | – | –
26 | CC(=O)Nc1ccc(-c2csc(NC(=O)C3CCN(S(=O)(=O)c4cccs4)CC3)n2)cc1 [compound 22410899] | no activity detected | > 150 | >39 | 3.8 ± 0.3 | no activity detected | – | – | – | –
27 | Cc1cccc2c(=O)cc(C)n(Cc3ccccc3)c12 [compound 22415156] | – | > 150 | >42 | 2.4 ± 0.2 | no activity detected | – | 11 ± 0.1 | – | –
28 | COc1cc(/C=C/C(=O)N2CCOCC2)ccc1OCc1ccccc1 [compound 22415419] | – | > 150 | >33 | 2.2 ± 0.3 | no activity detected | no activity detected | 5 ± 0.2 | – | –
29 | COc1cc(/C=C/C(=O)NC(C)C)ccc1OCc1ccccc1 [compound 22415706] | – | – | – | 4.1 | no activity detected | no activity detected | 12.9 | – | –
